# In patent US10314820B2, “Imidazole-based heterocyclic compounds” (priority 2014, dated 2019):
# Columns and labels:
# [1] = system: Escherichia coli TolC mutant strain ΔtolC; format: cell-based; conditions: Table BB; MIC score
# [2] = system: Human hepatocytes (HepaRG cells); assay: Human cytotoxicity assay in vitro (CellTiter-Glo), hepatocytes; format: cell-based; conditions: hepatocyte cytotoxicity score; 24 h exposure
# [3] = system: Human keratinocytes (HaCaT cells); assay: Human cytotoxicity assay in vitro (CellTiter-Glo), keratinocytes; format: cell-based; conditions: keratinocyte cytotoxicity score; 24 h exposure
# [4] = system: vancomycin-resistant Staphylococcus aureus (from MRSA, COL); assay: microbe, parasite or virus in culture; format: cell-based; conditions: for antibacterial activity MRSA strains with additional resistance to V: Table BB, MIC score, vancomycin-resistant MRSA
# [5] = system: linezolid-resistant Staphylococcus aureus (from MRSA, COL); assay: microbe, parasite or virus in culture; format: cell-based; conditions: for antibacterial activity MRSA strains with additional resistance to L: Table BB, MIC score, linezolid-resistant MRSA
# [6] = system: Enterococcus faecium (AGR15, ATCCBAA-2127); assay: Broth microdilution MIC assay, Enterococcus faecium; format: cell-based; conditions: Table BB; MIC score
# [7] = system: moenomycin-resistant Staphylococcus aureus (from MRSA, COL); conditions: Table BB, MIC score
# [8] = system: Streptococcus pneumoniae (Chester, ATCC49619); assay: Broth microdilution MIC assay, Streptococcus pneumoniae; format: cell-based; conditions: Table AA; MIC score
# [9] = system: Staphylococcus aureus MSSA (Newman); assay: Broth microdilution MIC assay, MSSA; format: cell-based; conditions: Table AA; MIC score
# [10] = system: Staphylococcus aureus MRSA (COL); format: cell-based; conditions: Table AA; MIC score
# [11] = system: platensimycin-resistant Staphylococcus aureus (from MRSA, COL); assay: microbe, parasite or virus in culture; format: cell-based; conditions: read-out: MIC for the resistant strain
# [12] = system: MRSA (COL) resistant to triclosan; assay: microbe, parasite or virus in culture; conditions: Staphylococcus aureus, read-out: MIC values of resistant strains
# [13] = Staphylococcus aureus, MRSA, read-out: MIC for the resistant strain
SMILES,cytotoxicity cell line H [2],cytotoxicity cell line K [3],antibacterial activity MRSA strains with additional resistance to V [4],antibacterial activity MRSA strains with additional resistance to L [5],antibacterial activity EFm [6],antibacterial activity MRSA strains with additional resistance to M [7],other results
Cc1[nH]c(-c2ccc(-c3ccccc3F)s2)nc1-c1ccccc1 [Compound 15],1 (compounds not causing a loss of viability at concentrations between 25 and 50 μM),1 (compounds causing less than 50% inhibition of cell viability at 50 μM),–,–,–,–,antibacterial activity EC Δ [1]: 1 (the compound has an MIC100 of 20-50 μg/ml or an MIC50 of <10 μg/ml)
Cc1nc(-c2ccc(-c3ccccc3OC(F)(F)F)o2)[nH]c1-c1ccccc1Cl [Compound 19],3,0 (compounds not causing loss of cell viability at concentrations of 50 μM or higher),1 (the compound has an MIC100 of 20-50 μg/ml or an MIC50 of <10 μg/ml),3 (the compound has an MIC100 of 3-10 μg/ml),–,–,–
"Cc1[nH]c(-c2ccc(-c3ccccc3OC(F)(F)F)o2)nc1-c1ccc(F)cc1 [Compound 23, 4-(4-Fluoro-phenyl)-5-methyl-2-[5-(2-trifluoromethoxy-phenyl)-furan-2-yl]-1H-imidazole]",3,2 (compounds causing>50% inhibition of cell viability at 25 μM),–,–,1 (the compound has an MIC100 of 20-50 μg/ml or an MIC50 of <10 μg/ml),–,–
Cc1[nH]c(-c2ccc(-c3ccccc3OC(F)(F)F)o2)nc1-c1ccc(Cl)cc1 [Compound 24],2,2 (compounds causing>50% inhibition of cell viability at 25 μM),4 (the compound has an MIC of 1 μg/ml to 3 μg/ml for preventing bacterial growth 100% (MIC100)),3 (the compound has an MIC100 of 3-10 μg/ml),–,3 (the compound has an MIC100 of 3-10 μg/ml),–
Cc1[nH]c(-c2ccc(-c3ccc(Cl)c(C(F)(F)F)c3)o2)nc1-c1ccc(F)cc1 [Compound 42],1 (compounds not causing a loss of viability at concentrations between 25 and 50 μM),3 (compounds causing more than 50% inhibition of cell viability at 10 μM),4 (the compound has an MIC of 1 μg/ml to 3 μg/ml for preventing bacterial growth 100% (MIC100)),4 (the compound has an MIC of 1 μg/ml to 3 μg/ml for preventing bacterial growth 100% (MIC100)),1 (the compound has an MIC100 of 20-50 μg/ml or an MIC50 of <10 μg/ml),4 (the compound has an MIC of 1 μg/ml to 3 μg/ml for preventing bacterial growth 100% (MIC100)),–
Cc1nc(-c2ccc(-c3ccc(Cl)c(OC(F)(F)F)c3)o2)[nH]c1-c1ccc(Cl)cc1 [Compound 44],2,–,–,–,1 (the compound has an MIC100 of 20-50 μg/ml or an MIC50 of <10 μg/ml),–,–
Cc1[nH]c(-c2ccc(-c3ccc(C(F)(F)F)cc3)o2)nc1-c1ccc(Cl)cc1 [Compound 47],1 (compounds not causing a loss of viability at concentrations between 25 and 50 μM),2 (compounds causing>50% inhibition of cell viability at 25 μM),–,–,1 (the compound has an MIC100 of 20-50 μg/ml or an MIC50 of <10 μg/ml),–,–
Cc1[nH]c(-c2ccc(-c3ccc(C(F)(F)F)c(Cl)c3)o2)nc1-c1ccc(F)cc1 [Compound 49],3,2 (compounds causing>50% inhibition of cell viability at 25 μM),3 (the compound has an MIC100 of 3-10 μg/ml),2 (the compound has an MIC100 of 11-20 μg/ml),1 (the compound has an MIC100 of 20-50 μg/ml or an MIC50 of <10 μg/ml),3 (the compound has an MIC100 of 3-10 μg/ml),–
Cc1[nH]c(-c2ccc(-c3ccc(OC(F)(F)F)c(Cl)c3)o2)nc1-c1ccc(Cl)cc1 [Compound 50],1 (compounds not causing a loss of viability at concentrations between 25 and 50 μM),1 (compounds causing less than 50% inhibition of cell viability at 50 μM),–,–,–,–,Antibacterial activity Streptococcus pneumoniae [8]: 3 (the compound has an MIC100 of 2-5 μg/ml); Antibacterial activity Staphylococcus aureus (MSSA) [9]: 3 (the compound has an MIC100 of 3-10 μg/ml); Antibacterial activity Staphylococcus aureus (MRSA) [10]: 2 (the compound has an MIC100 of 11-20 μg/ml)
FC(F)(F)Oc1ccccc1-c1ccc(-c2nc(Cl)c(-c3ccccc3)[nH]2)o1 [Compound 64],3,3 (compounds causing more than 50% inhibition of cell viability at 10 μM),4 (the compound has an MIC of 1 μg/ml to 3 μg/ml for preventing bacterial growth 100% (MIC100)),–,–,4 (the compound has an MIC of 1 μg/ml to 3 μg/ml for preventing bacterial growth 100% (MIC100)),–
Cc1ccccc1-c1c[nH]c(-c2ccc(-c3ccccc3OC(F)(F)F)o2)n1 [Compound 66],3,1 (compounds causing less than 50% inhibition of cell viability at 50 μM),3 (the compound has an MIC100 of 3-10 μg/ml),4 (the compound has an MIC of 1 μg/ml to 3 μg/ml for preventing bacterial growth 100% (MIC100)),–,3 (the compound has an MIC100 of 3-10 μg/ml),–
Cc1ccccc1-c1cnc(-c2ccc(-c3ccccc3C(F)(F)F)o2)[nH]1 [Compound 69],2,1 (compounds causing less than 50% inhibition of cell viability at 50 μM),–,–,–,–,antibacterial activity EC Δ [1]: 1 (the compound has an MIC100 of 20-50 μg/ml or an MIC50 of <10 μg/ml)
CN(C)Cc1[nH]c(-c2ccc(-c3ccccc3C(F)(F)F)o2)nc1-c1ccccc1 [Compound 70],3,2 (compounds causing>50% inhibition of cell viability at 25 μM),1 (the compound has an MIC100 of 20-50 μg/ml or an MIC50 of <10 μg/ml),1 (the compound has an MIC100 of 20-50 μg/ml or an MIC50 of <10 μg/ml),2 (the compound has an MIC100 of 11-20 μg/ml),1 (the compound has an MIC100 of 20-50 μg/ml or an MIC50 of <10 μg/ml),Antibacterial activity Streptococcus pneumoniae [8]: 3 (the compound has an MIC100 of 2-5 μg/ml); Antibacterial activity Staphylococcus aureus (MSSA) [9]: 1 (the compound has an MIC100 of 20-50 μg/ml or an MIC50 of <10 μg/ml); Antibacterial activity Staphylococcus aureus (MRSA) [10]: 1 (the compound has an MIC100 of 20-50 μg/ml or an MIC50 of <10 μg/ml); antibacterial activity EC Δ [1]: 3 (the compound has an MIC100 of 3-10 μg/ml)
Cc1[nH]c(-c2ccc(-c3ccccc3)s2)nc1-c1ccccc1 [Compound 74],1 (compounds not causing a loss of viability at concentrations between 25 and 50 μM),3 (compounds causing more than 50% inhibition of cell viability at 10 μM),–,–,–,–,–
Fc1ccc(-c2ccc(-c3nc4ccccc4[nH]3)o2)cc1 [Compound 121],–,–,–,–,–,–,Antibacterial activity Streptococcus pneumoniae [8]: inactive; Antibacterial activity Staphylococcus aureus (MRSA) [10]: inactive
Fc1ccc(-c2ccc(-c3nc4ccccc4[nH]3)o2)c(F)c1 [Compound 122],–,–,–,–,–,–,Antibacterial activity Streptococcus pneumoniae [8]: inactive; Antibacterial activity Staphylococcus aureus (MRSA) [10]: inactive
"CC(=O)NC[C@H]1CN(c2ccc(N3CCOCC3)c(F)c2)C(=O)O1 [linezolid, reference compound]",–,–,–,–,–,–,"MIC [5, 13]: 7.5 µg/mL"
CC12C[C@@]34C=CC(=O)[C@@](C)(CCC(=O)Nc5c(O)ccc(C(=O)O)c5O)C3[C@H](CC1C4)O2 (stereo partly drawn) [platensimycin],–,–,–,–,–,–,MIC [11]: > 10 µg/mL
Oc1cc(Cl)ccc1Oc1ccc(Cl)cc1Cl [triclosan],–,–,–,–,–,–,MIC [12]: > 20 µg/mL
"CN[C@H](CC(C)C)C(=O)N[C@H]1C(=O)N[C@@H](CC(N)=O)C(=O)N[C@H]2C(=O)N[C@H]3C(=O)N[C@H](C(=O)N[C@H](C(=O)O)c4cc(O)cc(O)c4-c4cc3ccc4O)[C@H](O)c3ccc(c(Cl)c3)Oc3cc2cc(c3O[C@@H]2O[C@H](CO)[C@@H](O)[C@H](O)[C@H]2O[C@H]2C[C@](C)(N)[C@H](O)[C@H](C)O2)Oc2ccc(cc2Cl)[C@H]1O [vancomycin, Vancomycin, reference compound]",–,–,–,–,–,–,"MIC [4, 13]: 20 µg/mL"
